Source: patent US12134620B2 (ARAXES PHARMA LLC, priority 2018, dated 2024)

Target: T1, KRAS G12C 1-169, his-tagged protein, GDP-loaded (Homo sapiens, UniProt P01116, G12C)
T1 construct: KRAS G12C 1-169, his-tagged protein, GDP-loaded; His tag
Assay: Biochemical assay: covalent modification of KRAS G12C, analysed by mass spectrometry (RapidFire/TOF or Q-Exactive); also: time not given here
Format: binding
Settings: Modification activity, modification percentage from MS peak intensities
In short: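 Covalent adduct formation was quantified by intact-protein mass spectrometry, either TOF or C4 LC-Q Exactive Plus, as percent modified versus unmodified protein after deconvolution. Compounds at 8 or 32 μM final were incubated with 0.5 or 2 μM GDP-bound KRAS G12C(1-169)-His in Hepes/NaCl/MgCl2 buffer before acid quench.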

SMILES	Binding %
C=CC(=O)N1CC2(CCN(c3nc(C#N)nc(-c4c(C)ccc5[nH]ncc45)c3C#N)C2)C1 [Compound I-10, 4-(2-acryloyl-2,6-diazaspiro[3.4]octan-6-yl)-6-(5-methyl-1H-indazol-4-yl)pyrimidine-2,5-dicarbonitrile]	++ (++ indicates binding activity from 50 to 85%)
C=CC(=O)N1CC2(CCN(c3nc(OC[C@@H]4CCCN4C)nc(-n4cnc5ccccc54)c3C#N)C2)C1 [Compound I-38, (S)-4-(2-acryloyl-2,6-diazaspiro[3.4]octan-6-yl)-6-(1H-benzo[d]imidazol-1-yl)-2-((1-mehtylpyrrolidin-2-yl)methoxy)pyrimidine-5-carbonitrile]	+ (+ indicates binding activity greater than 0% and up to 50%)
C=CC(=O)N1CC2(CCN(c3nc(OC[C@@H]4CCCN4C)nc(-c4cccc5c4OCCO5)c3C#N)C2)C1 [Compound I-26, (S)-4-(2-acryloyl-2,6-diazaspiro[3.4]octan-6-yl)-6-(2,3-dihydrobenzo[b][1,4]dioxin-5-yl)-2-((1-methylpyrrolidin-2-yl)methoxy)pyrimidine-5-carbonitrile]	+ (+ indicates binding activity greater than 0% and up to 50%)
C=CC(=O)N1CC2(CCN(c3ncnc(C#Cc4c(C)ccc5[nH]ncc45)c3C#N)C2)C1 [Compound I-232, 4-(2-acryloyl-2,6-diazaspiro[3.4]octan-6-yl)-6-((5-methyl-1H-indazol-4-yl)ethynyl)pyrimidine-5-carbonitrile]	+ (+ indicates binding activity greater than 0% and up to 50%)
C=CC(=O)N1CC2(CCN(c3c(OC[C@@H]4CCCN4C)ncc(-c4c(C)ccc5cnn(C)c45)c3C#N)C2)C1 [Compound I-182, 3-(2-acryloyl-2,6-diazaspiro[3.4]octan-6-yl)-5-(1,6-dimethyl-1H-indazol-7-yl)-2-(((S)-1-methylpyrrolidin-2-yl)methoxy)isonicoti-nonitrile]	+ (+ indicates binding activity greater than 0% and up to 50%)
C=CC(=O)N1CC2(CCN(c3nc(N4CC(N(C)C)C4)cc(-c4c(C)ccc5[nH]ncc45)c3C#N)C2)C1 [Compound I-187, 2-(2-acryloyl-2,6-diazaspiro[3.4]octan-6-yl)-6-(3-(dimethylamino)azeti-din-1-yl)-4-(5-methyl-1H-indazol-4-yl)nicotinonitrile]	+ (+ indicates binding activity greater than 0% and up to 50%)
C=CC(=O)N1CC2(CCN(c3nc(OCc4cc(F)cc(F)c4)nc(-c4c(C)ccc5cnn(C)c45)c3C#N)C2)C1 [Compound I-165]	++ (++ indicates binding activity from 50 to 85%)
CC#CC(=O)N1CC2(CCN(c3nc(OCc4ccccn4)nc(-c4c(C)ccc5[nH]ncc45)c3C#N)C2)C1 [Compound I-99, 4-(2-(but-2-ynoyl)-2,6-diazaspiro[3.4]octan-6-yl)-6-(5-methyl-1H-indazol-4-yl)-2-(pyridin-2-ylmethoxy)pyrimidine-5-carbonitrile]	+ (+ indicates binding activity greater than 0% and up to 50%)
C=CC(=O)N1CC2(CCN(c3nc(N4CCCC4)nc(-c4c(C)ccc5[nH]nc(N)c45)c3C#N)C2)C1 [Compound I-34, 4-(2-acryloyl-2,6-diazaspiro[3.4]octan-6-yl)-6-(3-amino-5-methyl-1H-indazol-4-yl)-2-(pyrrolidin-1-yl)pyrimidine-5-carbonitrile]	+++ (+++ indicates binding activity greater than 85%)
C=CC(=O)N1CC2(CCN(c3cnc(-c4ccccc4)c(-c4c(C)ccc5[nH]ncc45)c3C#N)C2)C1 [Compound I-207, 5-(2-acryloyl-2,6-diazaspiro[3.4]octan-6-yl)-3-(5-methyl-1H-indazol-4-yl)-2-phenylisonicotinonitrile]	++ (++ indicates binding activity from 50 to 85%)
C=CC(=O)N1CC2(CCN(c3nc(OCc4cnc(OC)nc4)nc(-c4c(C)ccc5cnn(C)c45)c3C#N)C2)C1 [Compound I-161, 4-(2-acryloyl-2,6-diazaspiro[3.4]octan-6-yl)-6-(1,6-dimethyl-1H-indazol-7-yl)-2-((2-methoxypyrimidin-5-yl)methoxy)pyrimidine-5-carbonitrile]	++ (++ indicates binding activity from 50 to 85%)
C=CC(=O)N1CC2(CCN(c3ncnc(-c4c(C)ccc5[nH]ncc45)c3OC)C2)C1 [Compound I-243, 1-(6-(5-methoxy-6-(5-methyl-1H-indazol-4-yl)pyrimidin-4-yl)-2,6-diazaspiro[3.4]octan-2-yl)prop-2-en-1-one]	+ (+ indicates binding activity greater than 0% and up to 50%)
C=CC(=O)N1CC2(CCN(c3nc(N4CCN(C)CC4=O)nc(-c4c(C)ccc5[nH]ncc45)c3C#N)C2)C1 [Compound I-111, 4-(2-acryloyl-2,6-diazaspiro[3.4]octan-6-yl)-6-(5-methyl-1H-indazol-4-yl)-2-(4-methyl-2-oxopiperazin-1-yl)pyrimidine-5-carbonitrile]	+ (+ indicates binding activity greater than 0% and up to 50%)
C=CC(=O)N1CC2(CCN(c3nc(CCN4CCCC4)nc(-c4c(C)ccc5[nH]ncc45)c3C#N)C2)C1 [Compound I-183, 4-(2-acryloyl-2,6-diazaspiro[3.4]octan-6-yl)-6-(5-methyl-1H-indazol-4-yl)-2-(2-(pyrrolidin-1-yl)ethyl)pyrimidine-5-carbonitrile]	+ (+ indicates binding activity greater than 0% and up to 50%)
C=C(C)C(=O)N1CC2(CCN(c3nc(N4CCOCC4)nc(-c4c(C)ccc5[nH]ncc45)c3C#N)C2)C1 [Compound I-192, 4-(2-methacryloyl-2,6-diazaspiro[3.4]octan-6-yl)-6-(5-methyl-1H-indazol-4-yl)-2-morpholinopyrimidine-5-carbonitrile]	+ (+ indicates binding activity greater than 0% and up to 50%)
C=CC(=O)N1CC2(CCN(c3nc(OCc4cc(C(F)(F)F)ccn4)nc(-c4c(C)ccc5cnn(C)c45)c3C#N)C2)C1 [Compound I-166, 4-(2-acryloyl-2,6-diazaspiro[3.4]octan-6-yl)-6-(1,6-dimethyl-1H-indazol-7-yl)-2-((4-(trifluoromethyl)pyri-din-2-yl)methoxy)pyrimidine-5-carbonitrile]	++ (++ indicates binding activity from 50 to 85%)
C=CC(=O)N1CC2(CCN(c3nc(N4CCOCC4)nc(-c4c(C)ccc5[nH]ncc45)c3C#N)C2)C1 [Compound I-3, 4-(2-acryloyl-2,6-diazaspiro[3.4]octan-6-yl)-6-(5-methyl-1H-indazol-4-yl)-2-morpholinopyrimidine-5-carbonitrile]	+++ (+++ indicates binding activity greater than 85%)
C=CC(=O)N1CC2(CCN(c3nc(OCc4ccccn4)nc(-c4c(C)ccc5cnn(C6CC6)c45)c3C#N)C2)C1 [Compound I-106, 4-(2-acryloyl-2,6-diazaspiro[3.4]octan-6-yl)-6-(1-cyclopropyl-6-methyl-1H-indazol-7-yl)-2-(pyridin-2-ylmethoxy)pyrimidine-5-carbontrile]	+ (+ indicates binding activity greater than 0% and up to 50%)
C=CC(=O)N1CC2(CCN(c3cnc(-c4ccccc4)c(-c4c(C)ccc5cnn(C)c45)c3C#N)C2)C1 [Compound I-208, 5-(2-acryloyl-2,6-diazaspiro[3.4]octan-6-yl)-3-(1,6-dimethyl-1H-indazol-7-yl)-2-phenylisonicotinonitrile]	+ (+ indicates binding activity greater than 0% and up to 50%)
C=CC(=O)N1CC2(CCN(c3nc(OCc4cnc(C)nc4)nc(-c4c(C)ccc5cnn(C)c45)c3C#N)C2)C1 [Compound I-169, 4-(2-acryloyl-2,6-diazaspiro[3.4]octan-6-yl)-6-(1,6-dimethyl-1H-indazol-7-yl)-2-((2-methylpyrimidin-5-yl)methoxy)pyrimidine-5-carbonitirle]	++ (++ indicates binding activity from 50 to 85%)
C=CC(=O)N1CC2(CCN(c3c(OC[C@@H]4CCCN4C)ncc(-c4c(C)ccc5[nH]ncc45)c3C#N)C2)C1 [Compound I-199, 3-(2-acryloyl-2,6-diazaspiro[3.4]octan-6-yl)-5-(5-methyl-1H-indazol-4-yl)-2-(((S)-1-methylpyrrolidin-2-yl)methoxy)isonicoti-nonitrile]	++ (++ indicates binding activity from 50 to 85%)
